Assay results reported in ChEMBL document CHEMBL1201862, “PubChem BioAssay data set” (2004).
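48-hour exposure; five concentrations; linearly interpolated endpoints. GI50: concentration for 50% inhibition of growth.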 Active and inactive are the calls of the source. No stated cut-off is given here; in the data, active = GI50 up to about 1.1 µM and inactive = higher.

Key:
Experiment in all cases: NCI anticancer screen, dose series, 48 h
A549 = tested on: A549
ACHN = tested on: ACHN
BT-549 = tested on: BT-549
CCRF-CEM = tested on: CCRF-CEM
DU-145 = tested on: DU-145
EKVX = tested on: EKVX
HL-60 = tested on: HL-60
Hs-578T = tested on: Hs-578T
LOX IMVI = tested on: LOX IMVI
MDA-MB-435 = tested on: MDA-MB-435
Malme-3M = tested on: Malme-3M
NCI-H460 = tested on: NCI-H460
NCI-H522 = tested on: NCI-H522
OVCAR-8 = tested on: OVCAR-8
RXF 393 = tested on: RXF 393
SK-MEL-28 = tested on: SK-MEL-28
SNB-75 = tested on: SNB-75
SR = tested on: SR
SW-620 = tested on: SW-620
UACC-257 = tested on: UACC-257

SMILES: O=C(O)c1ccccc1C1CCCc2c1[nH]c1ccccc21 (centres undefined)
- GI50 (A549): 79.3 µM (inactive)
- GI50 (ACHN): 58.5 µM (inactive)
- GI50 (BT-549): 83.6 µM (inactive)
- GI50 (CCRF-CEM): 20 µM (inactive)
- GI50 (DU-145): > 100 µM (inactive)
- GI50 (EKVX): 20.3 µM (inactive)
- GI50 (HL-60): 33.2 µM (inactive)
- GI50 (Hs-578T): 86.9 µM (inactive)
- GI50 (LOX IMVI): 44.2 µM (inactive)
- GI50 (MDA-MB-435): 31.3 µM (inactive)
- GI50 (Malme-3M): 98.9 µM (inactive)
- GI50 (NCI-H460): 69.7 µM (inactive)
- GI50 (NCI-H522): 47.9 µM (inactive)
- GI50 (OVCAR-8): 75.7 µM (inactive)
- GI50 (RXF 393): 22.3 µM (inactive)
- GI50 (SK-MEL-28): 96.6 µM (inactive)
- GI50 (SNB-75): 12.7 µM (inactive)
- GI50 (SR): 47 µM (inactive)
- GI50 (SW-620): 57.1 µM (inactive)
- GI50 (UACC-257): 69.7 µM (inactive)

SMILES: C=C(CCC(=O)N(CCc1c[nH]c2ccccc12)C(=O)c1ccccc1CSCC)C(=O)OC
- GI50 (A549): 27.1 µM (inactive)
- GI50 (ACHN): 31.9 µM (inactive)
- GI50 (BT-549): 71.9 µM (inactive)
- GI50 (CCRF-CEM): 5.4 µM (inactive)
- GI50 (DU-145): > 95.5 µM (inactive)
- GI50 (EKVX): 48.2 µM (inactive)
- GI50 (HL-60): 3.46 µM (inactive)
- GI50 (Hs-578T): 44.5 µM (inactive)
- GI50 (LOX IMVI): 29.2 µM (inactive)
- GI50 (MDA-MB-435): 22 µM (inactive)
- GI50 (Malme-3M): 48.9 µM (inactive)
- GI50 (NCI-H460): 32.2 µM (inactive)
- GI50 (NCI-H522): 23.6 µM (inactive)
- GI50 (OVCAR-8): 48.4 µM (inactive)
- GI50 (RXF 393): > 47.5 µM (inactive)
- GI50 (SK-MEL-28): > 100 µM (inactive)
- GI50 (SNB-75): > 83.8 µM (inactive)
- GI50 (SR): > 100 µM (inactive)
- GI50 (SW-620): 49.9 µM (inactive)
- GI50 (UACC-257): 35.3 µM (inactive)

SMILES: C/C(=C\CO)CC/C=C(\C)CNc1c(F)c(F)c(F)c(F)c1F
- GI50 (A549): 28.7 µM (inactive)
- GI50 (ACHN): 43.2 µM (inactive)
- GI50 (BT-549): 6.4 µM (inactive)
- GI50 (CCRF-CEM): 28.1 µM (inactive)
- GI50 (DU-145): 43.6 µM (inactive)
- GI50 (EKVX): 30.7 µM (inactive)
- GI50 (HL-60): 28.7 µM (inactive)
- GI50 (Hs-578T): 33.7 µM (inactive)
- GI50 (LOX IMVI): 29.2 µM (inactive)
- GI50 (MDA-MB-435): 22.9 µM (inactive)
- GI50 (Malme-3M): 27.4 µM (inactive)
- GI50 (NCI-H460): 36.1 µM (inactive)
- GI50 (NCI-H522): 18.4 µM (inactive)
- GI50 (OVCAR-8): 19.8 µM (inactive)
- GI50 (RXF 393): 24.8 µM (inactive)
- GI50 (SK-MEL-28): 20.5 µM (inactive)
- GI50 (SNB-75): 28.1 µM (inactive)
- GI50 (SR): 28.3 µM (inactive)
- GI50 (SW-620): 33.2 µM (inactive)
- GI50 (UACC-257): 21.3 µM (inactive)

SMILES: CCNC(=O)/C(=C/c1ccc(OC)cc1)c1cc(OC)c(OC)c(OC)c1
- GI50 (A549): 7.62 µM (inactive)
- GI50 (ACHN): 32.8 µM (inactive)
- GI50 (BT-549): 14.4 µM (inactive)
- GI50 (CCRF-CEM): 6.79 µM (inactive)
- GI50 (DU-145): 13.3 µM (inactive)
- GI50 (EKVX): 64.1 µM (inactive)
- GI50 (HL-60): 2.96 µM (inactive)
- GI50 (Hs-578T): 5.26 µM (inactive)
- GI50 (LOX IMVI): 8.39 µM (inactive)
- GI50 (MDA-MB-435): 2.09 µM (inactive)
- GI50 (Malme-3M): 5.53 µM (inactive)
- GI50 (NCI-H460): 5.31 µM (inactive)
- GI50 (NCI-H522): 4.92 µM (inactive)
- GI50 (OVCAR-8): 21.3 µM (inactive)
- GI50 (RXF 393): 1.95 µM (inactive)
- GI50 (SK-MEL-28): 5.79 µM (inactive)
- GI50 (SNB-75): 4.97 µM (inactive)
- GI50 (SR): 4.17 µM (inactive)
- GI50 (SW-620): 4.52 µM (inactive)
- GI50 (UACC-257): 13.5 µM (inactive)

SMILES: CCCCCCCCCCCCCCCCCCNc1ccn(C2OC(COP(=O)(O)OCC3OC(n4cc(F)c(NCCCCCCCCCCCCCCCCCC)nc4=O)CC3O)C(O)C2O)c(=O)n1 (centres undefined)
- GI50 (A549): 82.8 µM (inactive)
- GI50 (ACHN): > 100 µM (inactive)
- GI50 (BT-549): > 100 µM (inactive)
- GI50 (CCRF-CEM): > 100 µM (inactive)
- GI50 (DU-145): > 100 µM (inactive)
- GI50 (EKVX): > 100 µM (inactive)
- GI50 (HL-60): > 100 µM (inactive)
- GI50 (Hs-578T): > 100 µM (inactive)
- GI50 (LOX IMVI): > 100 µM (inactive)
- GI50 (MDA-MB-435): > 100 µM (inactive)
- GI50 (Malme-3M): 42.6 µM (inactive)
- GI50 (NCI-H460): > 100 µM (inactive)
- GI50 (NCI-H522): 38.9 µM (inactive)
- GI50 (OVCAR-8): 43.6 µM (inactive)
- GI50 (RXF 393): > 100 µM (inactive)
- GI50 (SK-MEL-28): > 100 µM (inactive)
- GI50 (SNB-75): > 100 µM (inactive)
- GI50 (SR): > 100 µM (inactive)
- GI50 (SW-620): > 100 µM (inactive)
- GI50 (UACC-257): > 100 µM (inactive)

SMILES: O=C(O)c1cc2c(cc1S(=O)(=O)O)C1C(C3C2C2(Cl)C(Cl)=C(Cl)C3(Cl)C2(Cl)Cl)C2(Cl)C(Cl)=C(Cl)C1(Cl)C2(Cl)Cl (centres undefined)
- GI50 (A549): 72.9 µM (inactive)
- GI50 (ACHN): > 100 µM (inactive)
- GI50 (BT-549): 67 µM (inactive)
- GI50 (CCRF-CEM): 0.173 µM (active)
- GI50 (DU-145): 48.1 µM (inactive)
- GI50 (EKVX): 30.2 µM (inactive)
- GI50 (HL-60): 2.43 µM (inactive)
- GI50 (Hs-578T): 45.2 µM (inactive)
- GI50 (MDA-MB-435): 41.9 µM (inactive)
- GI50 (Malme-3M): 64.7 µM (inactive)
- GI50 (NCI-H460): 34.6 µM (inactive)
- GI50 (NCI-H522): 17.7 µM (inactive)
- GI50 (OVCAR-8): 54.7 µM (inactive)
- GI50 (RXF 393): 29.2 µM (inactive)
- GI50 (SK-MEL-28): 37.1 µM (inactive)
- GI50 (SNB-75): 47.6 µM (inactive)
- GI50 (SR): 24.7 µM (inactive)
- GI50 (SW-620): 37.2 µM (inactive)
- GI50 (UACC-257): 90.2 µM (inactive)

SMILES: CC[C@@]1(O)C(=O)OCc2c1cc1n(c2=O)Cc2c-1nc1ccccc1c2/C=N\NC(=O)C1CCCN1 (some centres undefined)
- GI50 (A549): 0.826 µM (active)
- GI50 (ACHN): 0.0283 µM (active)
- GI50 (BT-549): 1.49 µM (inactive)
- GI50 (DU-145): 0.133 µM (active)
- GI50 (EKVX): 9.55 µM (inactive)
- GI50 (HL-60): 0.046 µM (active)
- GI50 (Hs-578T): 22.5 µM (inactive)
- GI50 (LOX IMVI): 0.09 µM (active)
- GI50 (MDA-MB-435): 2 µM (inactive)
- GI50 (Malme-3M): 1.79 µM (inactive)
- GI50 (NCI-H460): 0.266 µM (active)
- GI50 (NCI-H522): 0.282 µM (active)
- GI50 (OVCAR-8): 0.258 µM (active)
- GI50 (RXF 393): 0.364 µM (active)
- GI50 (SK-MEL-28): 6.58 µM (inactive)
- GI50 (SNB-75): 0.104 µM (active)
- GI50 (SR): < 0.01 µM (active)
- GI50 (SW-620): 0.185 µM (active)
- GI50 (UACC-257): 3.01 µM (inactive)

SMILES: CCC(C)N1CN(c2ccccc2)C2(CCN(CCCC(=O)c3ccc(F)cc3)CC2)C1=O (centres undefined)
- GI50 (A549): 6.03 µM (inactive)
- GI50 (ACHN): 1.68 µM (inactive)
- GI50 (BT-549): 13.1 µM (inactive)
- GI50 (CCRF-CEM): 0.64 µM (active)
- GI50 (DU-145): 0.927 µM (active)
- GI50 (EKVX): 10.8 µM (inactive)
- GI50 (HL-60): 4.76 µM (inactive)
- GI50 (Hs-578T): 13.7 µM (inactive)
- GI50 (LOX IMVI): 2.74 µM (inactive)
- GI50 (MDA-MB-435): 13.9 µM (inactive)
- GI50 (Malme-3M): 14.7 µM (inactive)
- GI50 (NCI-H522): 7.85 µM (inactive)
- GI50 (OVCAR-8): > 10 µM (inactive)
- GI50 (RXF 393): 14.2 µM (inactive)
- GI50 (SK-MEL-28): 17.4 µM (inactive)
- GI50 (SNB-75): 19.5 µM (inactive)
- GI50 (SR): 5.98 µM (inactive)
- GI50 (SW-620): 3.77 µM (inactive)

SMILES: O=C1NC(N2CCOCC2)=N/C1=C\c1cccs1
- GI50 (A549): > 100 µM (inactive)
- GI50 (ACHN): > 100 µM (inactive)
- GI50 (BT-549): > 100 µM (inactive)
- GI50 (CCRF-CEM): > 100 µM (inactive)
- GI50 (DU-145): > 100 µM (inactive)
- GI50 (EKVX): > 100 µM (inactive)
- GI50 (HL-60): > 100 µM (inactive)
- GI50 (Hs-578T): > 100 µM (inactive)
- GI50 (LOX IMVI): > 100 µM (inactive)
- GI50 (MDA-MB-435): > 100 µM (inactive)
- GI50 (Malme-3M): > 100 µM (inactive)
- GI50 (NCI-H522): > 100 µM (inactive)
- GI50 (OVCAR-8): > 100 µM (inactive)
- GI50 (RXF 393): > 100 µM (inactive)
- GI50 (SK-MEL-28): > 100 µM (inactive)
- GI50 (SNB-75): 30.2 µM (inactive)
- GI50 (SR): > 100 µM (inactive)
- GI50 (SW-620): > 100 µM (inactive)
- GI50 (UACC-257): > 100 µM (inactive)

SMILES: CSc1cnn(CCC#N)c(=O)n1
- GI50 (A549): > 100 µM (inactive)
- GI50 (ACHN): > 100 µM (inactive)
- GI50 (BT-549): > 100 µM (inactive)
- GI50 (CCRF-CEM): 31 µM (inactive)
- GI50 (DU-145): > 100 µM (inactive)
- GI50 (EKVX): > 100 µM (inactive)
- GI50 (HL-60): 33.2 µM (inactive)
- GI50 (Hs-578T): > 100 µM (inactive)
- GI50 (LOX IMVI): 93.5 µM (inactive)
- GI50 (MDA-MB-435): > 100 µM (inactive)
- GI50 (Malme-3M): > 100 µM (inactive)
- GI50 (NCI-H522): > 100 µM (inactive)
- GI50 (OVCAR-8): > 100 µM (inactive)
- GI50 (RXF 393): > 100 µM (inactive)
- GI50 (SK-MEL-28): > 100 µM (inactive)
- GI50 (SNB-75): 84.9 µM (inactive)
- GI50 (SR): 40.9 µM (inactive)
- GI50 (SW-620): 74.6 µM (inactive)
- GI50 (UACC-257): 62.5 µM (inactive)
